Assay results taken from ChEMBL document CHEMBL4265877, “Optimization of permeability in a series of pyrrolotriazine inhibitors of IRAK4” (Bioorg Med Chem, 2018).

Key:
[1] = Lipophilicity, log D of the compound at pH 7.4 by shake flask method; type: physicochemical; details: buffer
[2] = Apparent permeability from apical to basolateral side in human Caco2 cells; type: ADME, cell-based; details: Caco-2
[3] = Intrinsic clearance in human microsomes assessed per mg protein; type: ADME, Microsome; details: read-out: CLH

SMILES	logD [1]	Papp A→B [2] [×10⁻⁶ cm/s]	microsomal CLint [3] [µL/min/mg]
CN(C)[C@H]1CC[C@H](Nc2ncnc3ccoc23)CC1	-0.7	–	–
Cc1ccn2ncnc(N[C@H]3CC[C@H](N(C)C)CC3)c12	0.2	36	–
Cn1ccc2ncnc(N[C@H]3CC[C@H](N(C)C)CC3)c21	-0.8	–	–
CN(C)[C@H]1CC[C@H](Nc2ncnc3cscc23)CC1	0.3	–	39
CN(C)[C@H]1CC[C@H](Nc2ncnc3ccsc23)CC1	-0.2	–	–
CN(C)[C@H]1CC[C@H](Nc2ncnn3cccc23)CC1	0	–	< 3
CN(C)[C@H]1CC[C@H](Nc2ncnc3ccn(C4CCOCC4)c23)CC1	-0.6	–	–
CN(C)[C@H]1CC[C@H](Nc2ncnc3cc[nH]c23)CC1	-0.3	–	< 3
